Results published in patent US20170052170A1, “NOVEL CELL LINES AND METHODS” (priority 2009, published 2017).

Biological target: T1, sweet taste receptor (endogenously expressed T1R2/T1R3) (Homo sapiens, UniProt Q7RTX0+Q8TE23)
T1 construct: endogenous in cells; host or cells: HuTu (ATCC HTB-40), H716 (ATCC CCL-251), HEK 293T (ATCC CRL-11268); some with prior UV treatment
T1 sequence (Q8TE23 20-839): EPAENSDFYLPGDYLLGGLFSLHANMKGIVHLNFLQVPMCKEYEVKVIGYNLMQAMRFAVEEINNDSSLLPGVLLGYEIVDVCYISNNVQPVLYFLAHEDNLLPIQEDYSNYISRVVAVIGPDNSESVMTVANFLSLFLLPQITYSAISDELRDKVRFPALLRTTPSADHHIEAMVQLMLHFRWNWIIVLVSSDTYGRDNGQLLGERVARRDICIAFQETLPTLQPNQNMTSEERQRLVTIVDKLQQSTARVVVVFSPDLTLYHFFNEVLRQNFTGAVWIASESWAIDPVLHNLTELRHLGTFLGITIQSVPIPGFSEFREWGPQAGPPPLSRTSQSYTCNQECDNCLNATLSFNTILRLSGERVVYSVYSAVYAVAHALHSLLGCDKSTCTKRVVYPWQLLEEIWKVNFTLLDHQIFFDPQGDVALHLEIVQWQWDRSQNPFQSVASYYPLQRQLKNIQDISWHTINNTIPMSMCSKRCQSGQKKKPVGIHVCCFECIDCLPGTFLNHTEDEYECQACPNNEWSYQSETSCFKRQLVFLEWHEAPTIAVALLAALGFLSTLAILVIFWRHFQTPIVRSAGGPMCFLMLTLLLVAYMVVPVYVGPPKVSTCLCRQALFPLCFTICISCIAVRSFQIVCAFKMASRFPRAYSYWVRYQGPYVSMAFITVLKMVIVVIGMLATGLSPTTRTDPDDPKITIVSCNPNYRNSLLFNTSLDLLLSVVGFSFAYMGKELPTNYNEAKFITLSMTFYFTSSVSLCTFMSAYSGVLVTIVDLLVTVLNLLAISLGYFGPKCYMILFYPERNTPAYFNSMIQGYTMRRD
T1 sequence (Q7RTX0 21-852): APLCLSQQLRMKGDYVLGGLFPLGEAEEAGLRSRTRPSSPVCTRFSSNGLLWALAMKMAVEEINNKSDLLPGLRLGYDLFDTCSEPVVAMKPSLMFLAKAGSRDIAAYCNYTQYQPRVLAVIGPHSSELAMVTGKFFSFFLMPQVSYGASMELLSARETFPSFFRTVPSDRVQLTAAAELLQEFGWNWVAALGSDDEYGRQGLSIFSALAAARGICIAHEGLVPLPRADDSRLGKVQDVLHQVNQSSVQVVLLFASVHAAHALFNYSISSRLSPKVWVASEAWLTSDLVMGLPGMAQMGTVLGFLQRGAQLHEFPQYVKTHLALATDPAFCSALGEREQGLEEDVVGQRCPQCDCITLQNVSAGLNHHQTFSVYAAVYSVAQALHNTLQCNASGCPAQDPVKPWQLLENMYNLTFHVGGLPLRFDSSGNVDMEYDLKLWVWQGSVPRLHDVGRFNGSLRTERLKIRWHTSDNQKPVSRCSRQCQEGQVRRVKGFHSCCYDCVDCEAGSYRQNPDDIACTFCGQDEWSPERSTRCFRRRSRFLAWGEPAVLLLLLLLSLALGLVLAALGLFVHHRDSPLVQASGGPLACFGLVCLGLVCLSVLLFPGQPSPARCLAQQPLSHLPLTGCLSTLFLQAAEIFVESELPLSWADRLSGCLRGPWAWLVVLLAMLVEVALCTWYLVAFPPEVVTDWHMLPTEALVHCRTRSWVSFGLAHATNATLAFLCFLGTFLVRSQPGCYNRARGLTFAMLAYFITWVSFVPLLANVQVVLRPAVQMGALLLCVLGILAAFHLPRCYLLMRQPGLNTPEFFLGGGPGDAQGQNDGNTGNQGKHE
Experiment: calcium flux response to fructose of cells cultured from individual isolated HuTu, H716 and 293T cells
Assay type: cell-based
Conditions: fructose final concentration 15 mM, control response subtracted
Experimental: FIGS. 28 A-C depict representative traces of the functional cell-based response of cells of the invention to the addition of fructose (to a final concentration of 15 mM) compared to background. Cells cultured from individual isolated cells were tested (black traces) compared to control cells (gray traces). […] The cell-based assay was designed to report calcium flux using a fluorescent calcium signaling dye. Fluorescent assay response is plotted along the Y-axis and time is indicated along the X-axis. Arrows indicate the timepoint at which fructose was added. FIG. 28A depicts traces from cells cultured from an individual HuTu cell compared to control. FIG. 28B depicts traces from cells cultured from an individual H716 cell compared to control. FIG. 28C depicts traces from cells cultured from an individual 293T cell compared to control.
In a specific aspect, provided herein is a method for isolating a cell that endogenously expresses a sweet taste receptor T1R2 subunit and/or sweet taste receptor T1R3 subunit, wherein the method comprises the steps of: • a) providing a population of cells; • b) introducing into the cells a signaling probe or molecular beacon that detects expression of T1R2 and/or introducing into the cells a molecular beacon that detects expression of T1R3; and • c) isolating cells that express a sweet taste receptor T1R2 subunit and/or sweet taste receptor T1R3 subunit. […]

O=C(CO)[C@@H](O)[C@H](O)[C@H](O)CO [fructose] was tested, and the “functional cell-based (calcium flux) response compared to control cells” value was “higher response”.
